Here are results for 5 compounds from patent publication EP1484329A1, “Indole derivatives with apoptosis inducing activity” (Zentaris GmbH, priority 2003, dated 2004).

In brackets after ≈: the same amount, converted by molar mass. Counter-ions that a name gives are not always drawn. Like-named read-outs stand apart in the source and are kept apart here. Some results are limits rather than exact numbers.

One assay has as its system LT12mdr. Description: XTT proliferation assay, LT12mdr (resistant). Type of assay: cell-based. Particulars: read-out: XTT Proliferationsassay, EC50 LT12mdr. The text has this:
(§1) Die Substanzen 1,2, 4-6 wurden in einem Proliferationstest an etablierten Tumorzelllinien auf ihre anti-proliferative Aktivität hin untersucht (D.A. Scuderio et al. Cancer Res. 1988, 48, 4827-4833). Der verwendete Test bestimmt die zelluläre Dehydrogenase-Aktivität und ermöglicht eine Bestimmung der Zellvitalität und indirekt der Zellzahl. Bei den verwendeten Zelllinien handelt es sich um die humane Cervixkarzinom Zelllinie KB/HeLa (ATCC CCL17), die ovariale Adenokarzinomzelllinie SKOV-3 (ATCC HTB77), die humane Glioblastom Zelllinie SF-268 (NCI 503138) und die Lungenkarzinom Zelllinie NCI-H460 (NCI 503473). Des weiteren wurde zur Untersuchung der Zellzyklus-spezifischen Wirkung der Substanz ein RKOp27 Zellsystem verwendet (M. Schmidt et al. Oncogene19(20):2423-9, 2000). Bei RKO handelt es sich um eine humane Kolonkarzinomlinie, in der der Zellzyklusinhibitor p27 ^kip1 mittels des Ecdyson Expressionssystems induziert zur Expression gebracht und zu einem Zellzyklusarrest spezifisch in G2 geführt werden kann. Eine unspezifisch wirkende Substanz hemmt die Proliferation unabhängig davon, ob die RKO Zelle in G1 oder G2 arretiert ist oder nicht. Zellzyklus-spezifische Substanzen wie beispielsweise Tubulininhibitoren sind hingegen nur dann zytotoxisch, wenn Zellen nicht arretiert sind und der Zellzyklus durchlaufen wird. In Tabelle 1 ist die zytotoxische bzw. wachstumshemmende Aktivität der beschriebenen Verbindungen mit / ohne Expression von p27^kip1gezeigt. Die getesteten Verbindungen zeigten im induzierten Zustand von p27^kiP1 keine zytotoxische Aktivität. Die Ergebnisse zeigen eine sehr potente Hemmung der Proliferation ausgewählter Tumorzelllinien durch die genannten Substanzen. Tabelle 1:
(§2) Zur weiteren Charakterisierung wurden die Substanzen 1,2,4-6 gegenüber multi drug resistenten Zelllinien im Vergleich zu den nicht-resistenten Wildtypzelllinien untersucht.
(§3) Bei den untersuchten Zelllinien handelt es sich um die murine L1210, die akute myeloische Leukaemie Zelllinie LT12 und um die resistenten Linien L1210/mdr und LT12/mdr. Außerdem wurden die murine P388 Zelllinie (methyl-cholanthreneinduced lymphoid neoplasm) sowie die Doxorubicin-resistente P388 als Testsysteme herangezogen.
A general note: Formazan colour is commonly taken as a measure of viable cells.

The subject of a further assay is KB/HeLa. Description: XTT proliferation assay, KB/HeLa. Type of assay: cell-based. Conditions: Homo sapiens, read-out: XTT Proliferationsassay, EC50 KB/Hela.
Text: as §1, with “Substanzen.” for “Substanzen. Tabelle 1:”

The test system of the next assay is NCI-H460. Nature of the assay: XTT proliferation assay, NCI-H460. Conditions: Homo sapiens, read-out: XTT Proliferationsassay, EC50 NCI-H460. Type of assay: cell-based.
Text: as §1, with “Substanzen.” for “Substanzen. Tabelle 1:”

Another assay deals with A549. Nature of the assay: XTT proliferation assay, A549. Type of assay: cell-based, human. Conditions: for EC50: Homo sapiens, A549, A549, read-out: XTT Proliferationsassay, EC50 A549.
Text: as §1
(§4) Zur weiteren Charakterisierung wurden die Substanzen 1-6 an einem Panel von 7 humanen Tumorzelllinien auf ihre anti-proliferative Wirkung hin untersucht. Bei den untersuchten Zelllinien handelt es sich um die humanen Glioma Zelllinien A172 (ATCC CRL-1620) und U118 (ATCC HTB-15), die humane Lungenkarzinom Zelllinie A549, das humane epidermoide Karzinom A431 (ATCC CRL-2592), die humanen Prostatakarzinom Zelllinien DU145 (ATCC HTB-81) und PC3 (ATCC CRL-1435) und die humane Kolon Adenokarzinomzelllinie HT29 (ATCC HTB-38). Es handelt sich hierbei um sehr gut charakterisierte, etablierte Zelllinien, die von ATCC, ECACC bzw. NCI erhalten und in Kultur genommen wurden. Die in Tab. […]

The test system of the next assay is P388ADR. Description: XTT proliferation assay, P388ADR (doxorubicin-resistant). Type of assay: cell-based, murine. Particulars: Mus musculus, P388/ADR; read-out: XTT Proliferationsassay, EC50 P388ADR.
Text: as §1, §2, §3

The subject of the next assay is A172. Description: XTT proliferation assay, A172. Type of assay: cell-based, human. Particulars: for EC50: Homo sapiens, A 172, A172, read-out: XTT Proliferationsassay, EC50 A172.
Text: as §1, §4

The subject of another assay is P388. Description: XTT proliferation assay, P388 (wild type). Type of assay: cell-based, murine. Particulars: Mus musculus, P388; read-out: XTT Proliferationsassay, EC50 P388.
Text: as §1, §2, §3

In another assay the test system is LT12. Nature of the assay: XTT proliferation assay, LT12 (wild type). Type of assay: cell-based. Conditions: Rattus norvegicus, LT12; read-out: XTT Proliferationsassay, EC50 LT12.
Text: as §1, §2, §3

In a further assay the test system is PC3. Nature of the assay: XTT proliferation assay, PC3. Particulars: for EC50: Homo sapiens, PC-3, PC3, read-out: XTT Proliferationsassay, EC50 PC3. Type of assay: cell-based, human.
Text: as §1, §4

The next assay has as its system HT29. Nature of the assay: XTT proliferation assay, HT29. Type of assay: cell-based, human. Conditions: for EC50: Homo sapiens, HT-29, HT29, read-out: XTT Proliferationsassay, EC50 HT29.
Text: as §1, §4

The next assay deals with RKOp27. Nature of the assay: XTT proliferation assay, RKOp27 cell system with / without induced p27kip1 expression. Conditions: Homo sapiens. Type of assay: cell-based.
Text: as §1, with “Substanzen.” for “Substanzen. Tabelle 1:”

The test system of a further assay is A431. Description: XTT proliferation assay, A431. Type of assay: cell-based, human. Conditions: for EC50: Homo sapiens, A-431, A431, read-out: XTT Proliferationsassay, EC50 A431.
Text: as §1, §4

The test system of another assay is SF-268. Nature of the assay: XTT proliferation assay, SF-268. Type of assay: cell-based. Particulars: Homo sapiens, read-out: XTT Proliferationsassay, EC50 SF-268.
Text: as §1, with “Substanzen.” for “Substanzen. Tabelle 1:”

For another assay, the system named is SKOV-3. Nature of the assay: XTT proliferation assay, SKOV-3. Particulars: Homo sapiens, SK-OV-3; read-out: XTT Proliferationsassay, EC50 SKOV3. Type of assay: cell-based.
Text: as §1, with “Substanzen.” for “Substanzen. Tabelle 1:”

For the next assay, the system named is DU145. Nature of the assay: XTT proliferation assay, DU145. Conditions: for EC50: Homo sapiens, DU-145, DU145, read-out: XTT Proliferationsassay, EC50 DU145. Type of assay: cell-based, human.
Text: as §1, §4

Another assay relates to L1210VCR. Nature of the assay: XTT proliferation assay, L1210VCR (resistant). Type of assay: cell-based, murine. Conditions: Mus musculus; read-out: XTT Proliferationsassay, EC50 L1210VCR.
Text: as §1, §2, §3

A further assay has as its system L1210. Description: XTT proliferation assay, L1210 (wild type). Type of assay: cell-based, murine. Conditions: Mus musculus, L1210; read-out: XTT Proliferationsassay, EC50 L1210.
Text: as §1, §2, §3

The subject of a further assay is Rindertubulin. Description: Inhibition of tubulin polymerisation in vitro. Type of assay: biochemical, Rind. Particulars: Tubulin with 30% MAPs, mean of two independent experiments. The text has this: In diesem Test wird durch Zyklen von Polymerisation und Depolymerisation aufgereinigtes Tubulin eingesetzt, welches durch Zugabe von GTP und Erwärmung zur Polymerisation gebracht wird. […]

For the next assay, the system named is U118MG. Nature of the assay: XTT proliferation assay, U118MG. Particulars: Homo sapiens, U-118-MG; read-out: XTT Proliferationsassay, EC50 U118MG. Type of assay: cell-based.
Text: as §1, §4

[1] abbreviates: RKOP27, without expression of p27kip1, read-out: XTT Proliferationsassay, EC50 RKOP27.
The mark [2] stands for this setting: RKOP27 ind., p27kip1 expression induced (cells arrested), read-out: XTT Proliferationsassay, EC50 RKOP27 ind.

`Cc1ccc2cc(NC(=O)C(=O)c3cn(Cc4ccc(Cl)cc4)c4ccccc34)ccc2n1` [Verbindung 1, 2-[1-(4-Chlor-benzyl)-1 H-indol-3-yl]-N-(2-methyl-chinolin-6-yl)-2-oxo-acetamid, reference compound]: the EC50 in the assay on LT12mdr came to 0.218 µg/mL (≈ 0.48 µM); in the assay on KB/HeLa, 0.183 µg/mL (≈ 0.403 µM); in the assay on NCI-H460, 0.344 µg/mL (≈ 0.758 µM); with A549 it was 0.304 µg/mL (≈ 0.67 µM); in the assay with P388ADR, 0.212 µg/mL (≈ 0.467 µM); in the assay with A172, 0.165 µg/mL (≈ 0.363 µM). Further, the EC50 is 0.13 µg/mL (≈ 0.286 µM) in the assay with P388; 0.133 µg/mL (≈ 0.293 µM) in the assay on LT12; 0.199 µg/mL (≈ 0.438 µM) in the assay with PC3; 0.266 µg/mL (≈ 0.586 µM) in the assay on HT29; 0.23 µg/mL (≈ 0.507 µM) in the assay with RKOp27 (setting [1]); greater than 3.16 µg/mL in the assay on RKOp27 (setting [2]). Further, the EC50 in the assay with A431 was determined as 0.076 µg/mL (≈ 0.167 µM); in the assay with SF-268 it was 0.261 µg/mL (≈ 0.575 µM); in the assay on SKOV-3 it was 0.174 µg/mL (≈ 0.383 µM); with DU145, 0.329 µg/mL (≈ 0.725 µM); in the assay with L1210VCR, 0.304 µg/mL (≈ 0.67 µM); in the assay with L1210 it was 0.233 µg/mL (≈ 0.513 µM). Moreover, the “Hemmung der Tubulin-Polymerisation, EC50” value in the assay with Rindertubulin (listed as 1 (V)) worked out at 1.16 µg/mL.
`Cc1ccc2cc(NC(=O)C(=O)c3cn(Cc4ccc(Cl)cc4)c4ccccc34)ccc2n1` [Verbindung 3, 6-{2-[1-(4-Chlor-benzyl)-1 H-indol-3-yl]-2-oxo-acetylamino}-2-methyl-chinolin Hydrochlorid, reference compound]: the “XTT Proliferationsassay, EC50 A549” value in the assay on A549 (A549, listed as 3 (V)) came out at 0.405 µg/mL. Moreover, the “XTT Proliferationsassay, EC50 A172” value in the assay with A172 (A172, listed as 3 (V)) worked out at 0.171 µg/mL. Besides, the “XTT Proliferationsassay, EC50 PC3” value in the assay with PC3 (PC3, listed as 3 (V)) was 0.165 µg/mL. Moreover, the “XTT Proliferationsassay, EC50 HT29” value with HT29 (HT29, listed as 3 (V)) came to 0.219 µg/mL. In addition, the EC50 in the assay on U118MG came to 0.142 µg/mL. The “XTT Proliferationsassay, EC50 A431” value in the assay with A431 (A431, listed as 3 (V)) was determined as 0.075 µg/mL. For the same compound, the “XTT Proliferationsassay, EC50 DU145” value with DU145 (DU145, listed as 3 (V)) amounted to 0.426 µg/mL.
For the compound `O=C(Nc1ccc2[nH]ncc2c1)C(=O)c1cn(Cc2ccc(Cl)cc2)c2ccccc12` [Verbindung 6, 2-[1-(4-Chlor-benzyl)-1H-indol-3-yl]-N-(1H-indazol-5-yl)-2-oxo-acetamid], the EC50 is 0.093 µg/mL (≈ 0.217 µM) in the assay on LT12mdr; 0.335 µg/mL (≈ 0.781 µM) with KB/HeLa; 0.233 µg/mL (≈ 0.543 µM) in the assay with NCI-H460; 0.323 µg/mL (≈ 0.753 µM) with A549; 0.231 µg/mL (≈ 0.539 µM) in the assay on P388ADR; 0.342 µg/mL (≈ 0.797 µM) in the assay on A172. The EC50 with P388 is 0.175 µg/mL (≈ 0.408 µM); in the assay with LT12, 0.084 µg/mL (≈ 0.196 µM); with PC3, 0.093 µg/mL (≈ 0.217 µM); in the assay on HT29 it was 0.059 µg/mL (≈ 0.138 µM); in the assay with RKOp27 (setting [1]), 0.148 µg/mL (≈ 0.345 µM); in the assay with RKOp27 (setting [2]), greater than 3.16 µg/mL. Also, the EC50 with U118MG is 0.097 µg/mL (≈ 0.226 µM); with A431, 0.07 µg/mL (≈ 0.163 µM); in the assay with SF-268 it was greater than 3.16 µg/mL; in the assay with SKOV-3 it was 0.144 µg/mL (≈ 0.336 µM); in the assay on DU145, 0.506 µg/mL (≈ 1.18 µM); in the assay with L1210VCR, 0.241 µg/mL (≈ 0.562 µM). For the same compound, the EC50 with L1210 is 0.246 µg/mL (≈ 0.574 µM). For the same compound, in the assay with Rindertubulin, the “Hemmung der Tubulin-Polymerisation, EC50” value is 1.26 µg/mL.
Regarding `O=C1c2c(O)ccc(O)c2C(=O)c2c(NCCNCCO)ccc(NCCNCCO)c21` [mitoxantron, reference compound], the EC50 in the assay with P388ADR turned out to be 0.608 µg/mL (≈ 1.37 µM).
Regarding `CC[C@]1(O)C[C@H]2CN(CCc3c([nH]c4ccccc34)[C@@](C(=O)OC)(c3cc4c(cc3OC)N(C=O)[C@H]3[C@@](O)(C(=O)OC)[C@H](OC(C)=O)[C@]5(CC)C=CCN6CC[C@]43[C@@H]65)C2)C1` [vincristine, reference compound], in the assay with Rindertubulin, the “Hemmung der Tubulin-Polymerisation, EC50” value is 0.35 µg/mL.
